# In patent US8247211B2, “Glycopeptide antibiotics” (American Cyanamid Company, priority 2001, dated 2012):
# Tests used:
# Assay in all cases: In vitro antibacterial evaluation: minimum inhibitory concentration (MIC), broth dilution method
# Format in all cases: cell-based
# [1] = tested on: Escherichia coli
# [2] = tested on: Staphylococcus sp.; conditions: 18 hours at 35° C.
# Summary of the method: (§1)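 Broth dilution per NCCLS M7-A2 in Muller-Hinton II […], inoculum 5×10^5 CFU/mL, antibiotic tested over 64-0.06 μg/mL. MIC is taken as the lowest concentration that inhibits growth. Panel includes recent clinical isolates resistant to methicillin, penicillin and/or vancomycin.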
# [3] = tested on: Escherichia coli; remark: listed apart in the source
# Summary of the method: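 Susceptibility determined by NCCLS-recommended broth dilution (M7-A2), Muller-Hinton II […]. Concentration span 64-0.06 μg/mL, inoculum 5×10^5 CFU/mL. Isolates include strains resistant to methicillin, penicillin and/or vancomycin.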
# [4] = tested on: Enterococcus sp.; conditions: for MIC Enterococcus faecalis (GC 2242) / MIC Enterococcus faecalis (GC 4552): 18 hours at 35° C.
# Summary of the method: as §1
# [5] = tested on: Streptococcus sp.; conditions: 18 hours at 35° C.
# Summary of the method: as §1
SMILES,MIC Escherichia coli (ATCC 25922) [1] [µg/mL],MIC Coagulase Negative Staphylococcus (GC 4547) [2] [µg/mL],MIC Coagulase Negative Staphylococcus (GC 4547) ([2]; broth dilution) [µg/mL],MIC Coagulase Negative Staphylococcus (GC 4548) [2] [µg/mL],MIC Coagulase Negative Staphylococcus (GC 4548) ([2]; broth dilution) [µg/mL],MIC Coagulase Negative Staphylococcus (GC 4549) [2] [µg/mL],MIC Coagulase Negative Staphylococcus (GC 4549) ([2]; broth dilution) [µg/mL],MIC Coagulase Negative Staphylococcus (GC 4551) [2] [µg/mL],MIC Coagulase Negative Staphylococcus (GC 4551) ([2]; broth dilution) [µg/mL],MIC Staphylococcus aureus (ATCC 29213) [2] [µg/mL],MIC Staphylococcus aureus (ATCC 29213) ([2]; broth dilution) [µg/mL],MIC Staphylococcus aureus (GC 1131) [2] [µg/mL],MIC Staphylococcus aureus (GC 1131) ([2]; broth dilution) [µg/mL],MIC Staphylococcus aureus (GC 4541) [2] [µg/mL],MIC Staphylococcus aureus (GC 4541) ([2]; broth dilution) [µg/mL],MIC Staphylococcus aureus (GC 4542) [2] [µg/mL],MIC Staphylococcus aureus (GC 4542) ([2]; broth dilution) [µg/mL],MIC Staphylococcus aureus (GC 4544) [2] [µg/mL],MIC Staphylococcus aureus (GC 4544) ([2]; broth dilution) [µg/mL],MIC Staphylococcus aureus (GC 4545) [2] [µg/mL],further results
CC(C)CC(=O)OC1C(O)C(CO)OC(OC2C(CO)OC(Oc3ccc(CC4NC(=O)C(C(C)c5ccc(Cl)cc5)NC(=O)CNC(=O)C(CO)NC(=O)C(C(O)C5CNC(=N)N5C5OC(CO)C(O)C(O)C5O)NC(=O)C(C(O)C5CNC(=N)N5)NC4=O)cc3)C(O)C2O)C1O (stereo not shown) [Example 262b],>64,2,2,1,1,1,1,2,2,4,4,4,4,2,2,2,2,4,4,2,MIC Staphylococcus aureus (GC 4545) ([2]; broth dilution): 2 µg/mL; MIC Staphylococcus aureus-SMITH (GC 4543) [2]: 1 µg/mL; MIC Staphylococcus aureus-SMITH (GC 4543) ([2]; broth dilution): 1 µg/mL; MIC Staphylococcus haemolyticus (GC 4546) [2]: 2 µg/mL; MIC Staphylococcus haemolyticus (GC 4546) ([2]; broth dilution): 2 µg/mL; MIC Escherichia coli (GC 4559) [3]: >64 µg/mL; MIC Escherichia coli (GC 4560) [3]: 1 µg/mL; MIC Enterococcus avium (GC 4558) [4]: 16 µg/mL; MIC Enterococcus faecalis (ATCC 29212) [4]: 32 µg/mL; MIC Enterococcus faecalis (GC 2242) [4]: 16 µg/mL; MIC Enterococcus faecalis (GC 4552) [4]: 32 µg/mL; MIC Enterococcus faecalis (GC 4553) [4]: 32 µg/mL; MIC Enterococcus faecalis (GC 4554) [4]: 32 µg/mL; MIC Enterococcus faecium (GC 2243) [4]: 16 µg/mL; MIC Enterococcus faecium (GC 4556) [4]: 16 µg/mL; MIC Enterococcus faecium (GC 4557) [4]: 2 µg/mL; MIC Streptococcus agalactiae (GC 4564) [5]: 1 µg/mL; MIC Streptococcus pyogenes (ID-3187) [5]: 1 µg/mL
CC(C)CC(=O)OC1C(OC2C(CO)OC(Oc3ccc(CC4NC(=O)C(C(C)c5cccc(F)c5)NC(=O)CNC(=O)C(CO)NC(=O)C(C(O)C5CNC(=N)N5C5OC(CO)C(O)C(O)C5O)NC(=O)C(C(O)C5CNC(=N)N5)NC4=O)cc3)C(O)C2O)OC(CO)C(O)C1O (stereo not shown) [Example 264a],64,8,8,4,4,4,4,16,16,16,16,16,16,16,16,16,16,8,8,8,MIC Staphylococcus aureus (GC 4545) ([2]; broth dilution): 8 µg/mL; MIC Staphylococcus aureus-SMITH (GC 4543) [2]: 8 µg/mL; MIC Staphylococcus aureus-SMITH (GC 4543) ([2]; broth dilution): 8 µg/mL; MIC Staphylococcus haemolyticus (GC 4546) [2]: 8 µg/mL; MIC Staphylococcus haemolyticus (GC 4546) ([2]; broth dilution): 8 µg/mL; MIC Escherichia coli (GC 4559) [3]: >64 µg/mL; MIC Escherichia coli (GC 4560) [3]: 4 µg/mL; MIC Enterococcus avium (GC 4558) [4]: >64 µg/mL; MIC Enterococcus faecalis (ATCC 29212) [4]: 64 µg/mL; MIC Enterococcus faecalis (GC 2242) [4]: 64 µg/mL; MIC Enterococcus faecalis (GC 4552) [4]: >64 µg/mL; MIC Enterococcus faecalis (GC 4553) [4]: >64 µg/mL; MIC Enterococcus faecalis (GC 4554) [4]: >64 µg/mL; MIC Enterococcus faecium (GC 2243) [4]: >64 µg/mL; MIC Enterococcus faecium (GC 4556) [4]: 64 µg/mL; MIC Enterococcus faecium (GC 4557) [4]: 32 µg/mL; MIC Streptococcus agalactiae (GC 4564) [5]: 8 µg/mL; MIC Streptococcus pyogenes (ID-3187) [5]: 4 µg/mL
